Read-outs that look alike come from different tables or passages of the source.
Legend:
[1] = system: HBV DNA in HepG2.2.15 cells; test: In vitro anti-HBV activity assay (HBV DNA in HepG2.2.15 supernatant, qPCR); assay type: cell-based; settings: Hepatitis B virus, HepG2.2.15, 192 h; inhibition of HBV DNA in supernatant, 8 days culture
Procedure: 1) 100 μL of HepG2.2.15 cells were seeded at a number of 1.2×10^5 cells per well into a 96-well cell culture plate, and then the cells were cultured in a 37° C. incubator with 5% carbon dioxide (CO2) overnight. On day 2, the compounds to be tested were diluted with DMSO in 3-fold gradient to eight concentrations in total. Then the compounds were diluted 100-fold with culture medium, and 100 μL of the diluted compounds were taken and added to the cell-containing plate in a final volume of 200 μL, and the final concentration of DMSO was 0.5%, and two duplicate wells were used. The cells were cultured in a 37° C. incubator with 5% CO2 for 3 days. On day 5, the solutions in the cell culture plate were replaced with fresh culture medium containing the same concentrations of compounds. When culture was performed for 8 days, cell culture plate supernatant was collected for the extraction of HBV DNA.
2) Detection of HBV DNA by real-time quantitative PCR: the total DNA in the supernatant was extracted with QIAamp 96 DNA Blood Kit, and the content of HBV DNA was detected by quantitative PCR using HBV specific primers and probes. 20 μL PCR pre-mixed solution and 5 μL HBV DNA sample or HBV plasmid standard sample were added to a quantitative PCR plate for reaction. The HBV plasmid standard sample was diluted in 10-fold gradient to seven concentrations from 10^7 to 10 copies/μL. The quantitative PCR reaction procedure was as follows: pre-denaturation at 95° C. for 10 minutes; denaturation at 95° C. for 15 seconds, reaction at 60° C. for 1 minute, and this cycle was repeated 40 times. The inhibition rate of each well against HBV DNA was calculated according to the following equation, and the inhibition rate data of the compounds were subjected to a non-linear fitting analysis using GraphPad Prism software to obtain EC50 values of the compounds. HBV DNA inhibition rate %=(1−copy number of HBV DNA of the sample/copy number of HBV DNA of DMSO control)*100% The assay results are shown in Table 1 below.

[2] = Pharmacokinetic study for mouse (single intravenous or gavage administration); assay type: in vivo, mice; settings: for clearance / half-life / AUC(0-t) / Vd / Cmax / Tmax: plasma; for AUC(0-t): read-out: AUC0-24 h; for Vd: read-out: Vdss
Procedure: This experiment aims to evaluate the pharmacokinetic behavior of the compounds after a single intravenous or gavage administration in mice. As for the intravenous administration, the compounds were formulated into 0.5 mg/mL clear solutions, vehicle: 5% DMSO/5% 12-hydroxy stearate (solutol)/90% water; as for the gavage administration, the compounds were formulated into 2 mg/mL suspensions, vehicle: 0.5% sodium carboxymethylcellulose/0.2% Tween 80/99.3% water.
The concentrations of the compounds in plasma were determined by high-performance liquid chromatography-tandem mass spectrometry (LC-MS/MS). The retention time, chromatogram acquisition and integration of the chromatograms of the compounds and the internal standard (diclofenac) were processed using the software Analyst (Applied Biosystems), and data statistics were processed using the software Watson LIMS (Thermo Fisher Scientific) or Analyst (Applied Biosystems). The concentration unit of the analyte in the sample is ng/mL, 3 significant digits were retained, and all the values represented by percentages (e.g., % deviation and % coefficient of variation, etc.) have one decimal place. Each calibration curve contains at least 6 concentration levels. The calibration standard samples were formulated using stock solutions from different sources from the quality control samples. If the deviation between the calculated concentration of a calibration standard sample and the indicated value exceeds ±15.0% (the lower limit of quantitation exceeds ±20.0%), such standard sample should be excluded in regression analysis. The excluded calibration standard samples should be less than 25%, and each calibration curve contains at least 6 calibration standard samples that meet the acceptable standard. If the calibration standard samples at the lower and upper limits of quantification need to be excluded, the upper and lower limits of quantification of this batch of analytes will be increased and decreased accordingly.
Plasma concentrations were processed using a non-compartmental model of the WinNonlin™ Version 6.3 (Pharsight, Mountain View, Calif.) pharmacokinetic software, and pharmacokinetic parameters were calculated using the linear logarithmic trapezoidal method. The pharmacokinetic parameters to be calculated include, but are not limited to (if the data is not allowed), T1/2, Vdss, CL, AUC0-24h of the intravenous group; Cmax, Tmax, AUC0-24h and bioavailability (F %) of the oral gavage group.

HBV [3] = test: In vivo activity assay of HBV DNA in mouse plasmid model of tail vein high-pressure injection (Example 6); set-up: species or system female BABL/c mice; settings: 30 mg/Kg, gavage, twice a day
Procedure: (§1) The purpose of this study was to test the inhibitory effect of the compound (Example 6) against HBV in mice through a mouse model of high-pressure tail vein injection. In this experiment, female BABL/c mice were used, and the mice were 6-7 weeks old. The HBV plasmid DNA was extracted by using pAAV2-HBV 1.3 mer with Qiagen EndoFree Plasmid Giga kit at a concentration of 1000 ng/μL. The resulting solution was diluted with normal saline before use and stored at 4° C. until use.
100 μL of whole blood was taken from each mouse approximately 4 hours after the first administration On days 1, 3, and 5, and the whole blood was collected into a tube containing sodium heparin, centrifuged at 4° C. at 7000 rpm for 10 minutes, and the supernatant was taken to obtain plasma. The plasma was stored in a refrigerator at −80° C. and transported to an analytical laboratory for testing under dry ice freezing condition.
1) DNA in plasma was extracted, and the experimental procedure was carried out with reference to the instruction for QIAamp 96 DNA Blood Kit.
A qPCR reaction mixture was formulated (see Table 6). The qPCR reaction mixture, sample and standard sample were added to a 96-well reaction plate. The standard sample was plasmid DNA containing the full-length sequence of type D HBV. The standard sample was diluted from 10^7 copies/μL in 10-fold gradient to successively obtain 10^6˜10^1 copies/μL of DNA standard samples. PCR reaction: 95° C., 10 min; 95° C., 15 seconds; 60° C., 1 minute; 40 cycles.
Liver tissue was taken and homogenized with a tissue grinder. After centrifugation, the supernatant was transferred to a new centrifuge tube and digested with proteinase K digestion solution for 3 hours. The resulting mixture was cooled, and then RNAse A was added thereto to incubate for 30 minutes. The RNase A-treated mixture was extracted twice with an equal volume of phenol chloroform isoamyl alcohol to remove residual protein. The supernatant was transferred to a new centrifuge tube, and isopropanol was added thereto to precipitate the DNA. The DNA precipitation was washed twice with 70% ethanol. The precipitation was then air-dried and TE (10 mM Tris-HCl, pH 8.0, 1 mM EDTA) was added thereto to dissolve the DNA.
The DNA concentrations were measured with Nanodrop and adjusted to 10 ng/μL for all the samples. 5 μL samples were added to the quantitative PCR reaction system for quantitative PCR.
HBV DNA content=DNA content detected by HBV primer-DNA content detected by pAAV2 primer.

HBV [4] = test: In vivo activity assay of HBV DNA in mouse plasmid model of tail vein high-pressure injection (Example 23); set-up: species or system female BABL/c mice; settings: 60 mg/Kg, gavage
Procedure: as §1, with “23)” for “6)”

For C[C@H]1Cc2noc(-c3ccc(F)cn3)c2CN1C(=O)Nc1cc(F)c(F)c(F)c1 [Example 1], the EC50 [1] was 0.0053 µM, the F ([2]; oral gavage, 10 mg/Kg) was 76.1% and the clearance ([2]; intravenous injection, 1 mg/Kg) was 0.348 L/h/kg. For the same molecule, the half-life ([2]; intravenous injection, 1 mg/Kg) was 5.62 h, the AUC(0-t) ([2]; intravenous injection, 1 mg/Kg) was 6.71 µM·h and the Vd ([2]; intravenous injection, 1 mg/Kg) was 2.77 L/kg. It also gave a Cmax ([2]; oral gavage, 10 mg/Kg) of 4.26 µM, a Tmax ([2]; oral gavage, 10 mg/Kg) of 1 h and an AUC(0-t) ([2]; oral gavage, 10 mg/Kg) of 47.2 µM·h.

Molecule C[C@H]1Cc2noc(-c3ccccc3)c2CN1C(=O)Nc1cc(F)c(F)c(F)c1 [Example 2] has an EC50 [1] of 0.0293 µM.

In the case of C[C@H]1Cc2noc(-c3ccccc3F)c2CN1C(=O)Nc1cc(F)c(F)c(F)c1 [Example 3], the EC50 [1] is reported as 0.009 µM.

Molecule C[C@H]1Cc2noc(-c3ccc(F)cc3)c2CN1C(=O)Nc1cc(F)c(F)c(F)c1 [Example 5] has an EC50 [1] of 0.0247 µM.

Molecule C[C@H]1Cc2noc(-c3ccc(F)cc3F)c2CN1C(=O)Nc1cc(F)c(F)c(F)c1 [Example 6] has an EC50 [1] of 0.0049 µM, an F ([2]; oral gavage, 10 mg/Kg) of 58.4% and a clearance ([2]; intravenous injection, 1 mg/Kg) of 0.17 L/h/kg. For the same molecule, the half-life ([2]; intravenous injection, 1 mg/Kg) was 9.31 h, the AUC(0-t) ([2]; intravenous injection, 1 mg/Kg) was 11.4 µM·h and the Vd ([2]; intravenous injection, 1 mg/Kg) was 2.33 L/kg. For the same molecule, the Cmax ([2]; oral gavage, 10 mg/Kg) was 4.94 µM, the Tmax ([2]; oral gavage, 10 mg/Kg) was 0.5 h and the AUC(0-t) ([2]; oral gavage, 10 mg/Kg) was 66.7 µM·h. For the same molecule, the “Log HBV DNA mean value” (HBV [3]; liver tissue after 7 days of administration, solvent control 5.67) was 3.09 copy number/μL, the “Log HBV DNA mean value” (HBV [3]; plasma, Day 1, solvent control 2.22, Log(LLOQ) = 1.60) was 2.23 copy number/μL and the “Log HBV DNA mean value” (HBV [3]; plasma, Day 3, solvent control 4.51, Log(LLOQ) = 1.60) was 1.74 copy number/μL. For the same molecule, the “Log HBV DNA mean value” (HBV [3]; plasma, Day 5, solvent control 5.01, Log(LLOQ) = 1.60) was 2.02 copy number/μL and the “Log HBV DNA mean value” (HBV [3]; plasma, Day 7, solvent control 3.30, Log(LLOQ) = 1.60) was 1.85 copy number/μL.

Molecule COc1cccc(-c2onc3c2CN(C(=O)Nc2cc(F)c(F)c(F)c2)[C@@H](C)C3)c1 [Example 8] has an EC50 [1] of 0.0373 µM.

COc1ccc(-c2onc3c2CN(C(=O)Nc2cc(F)c(F)c(F)c2)[C@@H](C)C3)cc1 [Example 9] showed an EC50 [1] of 0.0105 µM.

In the case of C[C@H]1Cc2noc(-c3ccc(Cl)cc3)c2CN1C(=O)Nc1cc(F)c(F)c(F)c1 [Example 12], the EC50 [1] is reported as 0.0688 µM.

C[C@H]1Cc2noc(-c3cnccn3)c2CN1C(=O)Nc1cc(F)c(F)c(F)c1 [Example 13] gave an EC50 [1] of 0.0589 µM.

C[C@H]1Cc2noc(-c3cscn3)c2CN1C(=O)Nc1cc(F)c(F)c(F)c1 [Example 15] gave an EC50 [1] of 0.0067 µM.

In the case of C[C@H]1Cc2noc(-c3nccs3)c2CN1C(=O)Nc1cc(F)c(F)c(F)c1 [Example 16], the EC50 [1] is reported as 0.0246 µM.

In the case of C[C@H]1Cc2noc(-c3ccsn3)c2CN1C(=O)Nc1cc(F)c(F)c(F)c1 [Example 18], the EC50 [1] is reported as 0.0122 µM.

C[C@H]1Cc2noc(-c3ccc(F)cc3F)c2CN1C(=O)Nc1ccc(F)c(C#N)c1 [Example 19] showed an EC50 [1] of 0.0104 µM.

Molecule C[C@H]1Cc2noc(-c3ccc(F)cc3F)c2CN1C(=O)Nc1ccc(F)c(Cl)c1 [Example 20] has an EC50 [1] of 0.00866 µM.

For Cc1cc(NC(=O)N2Cc3c(noc3-c3ccc(F)cc3F)C[C@@H]2C)ccc1F [Example 21], the EC50 [1] was 0.00558 µM.

Molecule C[C@H]1Cc2noc(-c3ccc(F)cc3F)c2CN1C(=O)Nc1ccnc(Cl)c1 [Example 22] has an EC50 [1] of 0.0352 µM.

With C[C@H]1Cc2noc(-c3ncccn3)c2CN1C(=O)Nc1ccc(F)c(C#N)c1 [Example 23] the EC50 [1] was 0.0254 µM, the F ([2]; oral gavage, 3 mg/Kg) was 55.3% and the clearance ([2]; intravenous injection, 1 mg/Kg) was 0.262 L/h/kg. The half-life ([2]; intravenous injection, 1 mg/Kg) was 3.03 h, the AUC(0-t) ([2]; intravenous injection, 1 mg/Kg) was 10 µM·h and the Vd ([2]; intravenous injection, 1 mg/Kg) was 1.09 L/kg. For the same molecule, the Cmax ([2]; oral gavage, 3 mg/Kg) was 3.4 µM, the Tmax ([2]; oral gavage, 3 mg/Kg) was 0.5 h and the AUC(0-t) ([2]; oral gavage, 3 mg/Kg) was 16.7 µM·h. For the same molecule, the “Log HBV DNA mean value” (HBV [4]; liver tissue after 7 days of administration, BID, solvent control 6.01) was 4.50 copy number/μL, the “Log HBV DNA mean value” (HBV [4]; liver tissue after 7 days of administration, QD, solvent control 6.01) was 5.18 copy number/μL and the “Log HBV DNA mean value” (HBV [4]; plasma, Day 1, BID, solvent control 2.03) was 1.94 copy number/μL. The “Log HBV DNA mean value” (HBV [4]; plasma, Day 1, QD, solvent control 2.03) was 2.10 copy number/μL, the “Log HBV DNA mean value” (HBV [4]; plasma, Day 3, BID, solvent control 4.47) was 3.02 copy number/μL and the “Log HBV DNA mean value” (HBV [4]; plasma, Day 3, QD, solvent control 4.47) was 3.15 copy number/μL. The “Log HBV DNA mean value” (HBV [4]; plasma, Day 5, BID, solvent control 4.76) was 2.94 copy number/μL, the “Log HBV DNA mean value” (HBV [4]; plasma, Day 5, QD, solvent control 4.76) was 3.92 copy number/μL and the “Log HBV DNA mean value” (HBV [4]; plasma, Day 7, BID, solvent control 3.53) was 2.14 copy number/μL. The “Log HBV DNA mean value” (HBV [4]; plasma, Day 7, QD, solvent control 3.53) was 3.19 copy number/μL.

Work on C[C@H]1Cc2noc(-c3ncccn3)c2CN1C(=O)Nc1ccc(F)c(Cl)c1 [Example 24] yielded an EC50 [1] of 0.0156 µM.

With C[C@H]1Cc2noc(-c3ncccn3)c2CN1C(=O)Nc1cc(F)c(F)c(F)c1 [Example 25] the EC50 [1] was 0.0149 µM.

For C[C@H]1Cc2noc(-c3ncccn3)c2CN1C(=O)Nc1ccc(F)c(F)c1 [Example 26], the EC50 [1] was 0.0191 µM.
